Reference: patent US7632830B2, “Lactam compounds and pharmaceutical use thereof” (Ajinomoto Co., Inc., priority 2000, dated 2009)
Values after ≈ are worked out from the molar mass of the structure shown.

System: adipose cells of rats
Assay: Evaluation of the sugar-transporting activity (2-[14C(U)]-deoxy-D-glucose incorporation)
Assay type: cell-based
Conditions: concentration having a reinforcing effect corresponding to 50% of the reinforcing effect of insulin (100%); rat adipose cells
Description: After the decapitation and venesection of 6 male Wistar rats (body weight: 150 to 200 g), an incision was made in the abdomen of each rat to extract 6 g in total of epididymal adipose tissues. The tissues were finely cut into 2 mm×2 mm pieces in 6 ml of KRH (Krebs-Ringer Hepes, composition: 130 mM of sodium chloride, 4.7 mM of potassium chloride, 1.2 mM of potassium dihydrogenphosphate, 1.2 mM of magnesium sulfate, 1 mM of calcium chloride and 25 mM of Hepes, pH=7.6) containing 5% of BSA (bovine serum albumin). 24 mg of collagenase (type I) was added thereto and the digestion treatment was conducted for about 40 minutes to obtain about 6 ml of isolated adipose cells. The collagenase was removed by the buffer exchange. 2% BSA/KRH solution was added to the residue for the re-suspension to obtain 45 ml of an adipose cell suspension.
The sugar-transporting activity of the compounds of the present invention was evaluated with reference to a method described in a literature [Annual Review of Biochemistry, Vol. 55, p. 1059 (1986)]. In the test, 200 μl of the adipose cell suspension was poured in each polystyrene test tube, 100 μl of the solution of the test substance (by dilution of 10 mg/ml substance dimethyl sulfoxide solution with KRH) was added thereto, and the obtained mixture was shaken and then cultured at 37° C. for 30 minutes.
The sugar-transporting activity was evaluated by measuring the quantity of 2-[^14C(U)]-deoxy-D-glucose incorporated per a unit time. Namely, 2-[^14C(U)]-deoxy-D-glucose was added to the adipose cell suspension after the pre-culture (the final concentration: 0.5 μCi/sample). 5 minutes after, cytochalasin B (final concentration: 10 μM) was added to the mixture to terminate the sugar transportation. After forming a dinonyl phthalate layer, the obtained mixture was centrifuged to separate the adipose cells from the buffer. The quantity of 2-[^14C(U)]-deoxy-D-glucose contained in the adipose cell layer was determined with a liquid scintillation counter to determine the quantity of the incorporated sugar. In this evaluation system, when insulin (100 nM) having the effect of increasing the sugar transportation was used, the effect was about 7 times as high as that obtained in the insulin-free control group.
The results of the evaluation of the sugar-transporting activity obtained by using 100 μg/ml of each compound of the present invention are shown in Table 6. The sugar transporting activity in Table 6 was evaluated on the basis of the reinforcing effect of insulin (100 nM). […] The symbols in Table 6 are as follows: • No: Example No., and • A: sugar transporting activity.
The results of the evaluation of the sugar-transporting activity obtained by using each compound of the present invention are shown in Table 7. The sugar transporting activity in Table 7 was determined in terms of the concentration (EC50: μg/ml) of a test compound, having a reinforcing effect corresponding to 50% on the basis of the reinforcing effect of insulin having a reinforcing effect of 100%.

Row | Molecule | A: sugar transporting activity (EC50) | EC50
1 | CCC(=O)N1[C@@H]2CCCC[C@H]2NC2=C(C(=O)NC2)[C@H]1c1ccccc1Cl [Example 141] | 3 mg/L | 
2 | CCCC(=O)N1[C@@H]2CCCC[C@H]2NC2=C(C(=O)NC2)[C@H]1c1ccccc1Cl [Example 142] | 4 mg/L | 
3 | O=C1NCC2=C1[C@@H](c1ccccc1Cl)N(C(=O)CC(F)(F)F)[C@@H]1CCCC[C@H]1N2 [Example 143] | 0.5 mg/L | 
4 | COCC(=O)N1[C@@H]2CCCC[C@H]2NC2=C(C(=O)NC2)[C@H]1c1ccccc1Cl [Example 144] | 5 mg/L | 
5 | CCOCC(=O)N1[C@@H]2CCCC[C@H]2NC2=C(C(=O)NC2)[C@H]1c1ccccc1Cl [Example 145] | 10.7 mg/L | 
6 | COC(=O)CC(=O)N1[C@@H]2CCCC[C@H]2NC2=C(C(=O)NC2)[C@H]1c1ccccc1Cl [Example 146] | 2 mg/L | 
7 | COC(=O)N1[C@@H]2CCCC[C@H]2NC2=C(C(=O)NC2)[C@H]1c1ccccc1Cl [Example 147] | 2.4 mg/L | 
8 | CCC(=O)N1[C@@H]2CCCC[C@H]2NC2=C(C(=O)NC2)[C@H]1c1ccccc1F [Example 149] | 2 mg/L | 
9 | CCOCC(=O)N1[C@@H]2CCCC[C@H]2NC2=C(C(=O)NC2)[C@H]1c1ccccc1F [Example 150] | 2 mg/L | 
10 | COC(=O)N1[C@@H]2CCCC[C@H]2NC2=C(C(=O)NC2)[C@H]1c1ccccc1F [Example 151] | 2 mg/L | 
11 | CCC(=O)N1[C@@H]2CCCC[C@H]2NC2=C(C(=O)NC2)[C@H]1c1ccccc1 [Example 154] | 1.5 mg/L | 
12 | CCOCC(=O)N1[C@@H]2CCCC[C@H]2NC2=C(C(=O)NC2)[C@H]1c1ccccc1 [Example 155] | 2.7 mg/L | 
13 | COC(=O)N1[C@@H]2CCCC[C@H]2NC2=C(C(=O)NC2)[C@H]1c1ccccc1 [Example 156] | 2 mg/L | 
14 | CC(=O)N1[C@@H]2CCCC[C@H]2NC2=C(C(=O)NC2)[C@H]1c1ccccc1N [Example 158] | 12 mg/L | 
15 | COc1ccc([C@@H]2C3=C(CNC3=O)N[C@@H]3CCCC[C@H]3N2C(C)=O)cc1 [Example 160] | 4.4 mg/L | 
16 | CC(=O)N1[C@@H]2CCCC[C@H]2NC2=C(C(=O)NC2)[C@H]1c1ccc(Br)cc1 [Example 161] | 17 mg/L | 
17 | CCOCC(=O)N1[C@@H]2CCCC[C@H]2NC2=C(C(=O)NC2)[C@H]1c1ccc(Cl)cc1 [Example 163] | 6 mg/L | 
18 | CSc1ccccc1[C@@H]1C2=C(CNC2=O)N[C@@H]2CCCC[C@H]2N1C(=O)CO [Example 164] | 2 mg/L | 
19 | COc1ccccc1[C@@H]1C2=C(CNC2=O)N[C@@H]2CCCC[C@H]2N1C(=O)CCc1ncco1 [Example 166] | 0.064 mg/L | 
20 | CCOc1ccccc1[C@@H]1C2=C(CNC2=O)N[C@@H]2CCCC[C@H]2N1C(=O)CCc1ncco1 [Example 167] | 0.10 mg/L | 
21 | CSc1ccccc1[C@@H]1C2=C(CNC2=O)N[C@@H]2CCCC[C@H]2N1C(=O)CCc1ncco1 [Example 168] | 0.070 mg/L | 
22 | O=C1NCC2=C1[C@@H](c1ccccc1OC(F)(F)F)N(C(=O)CCc1nccs1)[C@@H]1CCCC[C@H]1N2 [Example 171] | 0.070 mg/L | 
23 | CCOc1ccccc1[C@@H]1C2=C(CNC2=O)N[C@@H]2CCCC[C@H]2N1C(=O)CCc1nccs1 [Example 172] | 0.060 mg/L | 
24 | CSc1ccccc1[C@@H]1C2=C(CNC2=O)N[C@@H]2CCCC[C@H]2N1C(=O)CCc1nccs1 [Example 173] | 0.060 mg/L | 
25 | COc1ccccc1[C@@H]1C2=C(CNC2=O)N[C@@H]2CCCC[C@H]2N1C(=O)CCc1ncc(C)s1 [Example 174] | 0.050 mg/L | 
26 | Cc1ccccc1[C@@H]1C2=C(CNC2=O)N[C@@H]2CCCC[C@H]2N1C(=O)CCc1ccccn1 [Example 175] | 0.020 mg/L | 
27 | COc1ccccc1[C@@H]1C2=C(CNC2=O)N[C@@H]2CCCC[C@H]2N1C(=O)CCc1ccccn1 [Example 176] | 0.021 mg/L | 
28 | COc1ccccc1[C@@H]1C2=C(CNC2=O)N[C@@H]2CCCC[C@H]2N1C(=O)CCc1ncccn1 [Example 177] | 0.10 mg/L | 
29 | CC(=O)N1[C@@H]2CCCC[C@H]2NC2=C(C(=O)NC2)[C@H]1c1ccc(Br)s1 [Example 180] |  | 19 mg/L (≈ 46.3 µM)

Same assay, conditions: insulin 100 nM; rat adipose cells

Row | Molecule | effect of increasing the sugar transportation relative to insulin-free control group
30 | insulin: insulin (100 nM) having the effect of increasing the sugar transportation; reference for the reinforcing effect [reference compound] | about 7 times
